Test results as given in publication PMC5136666, “Epobis is a Nonerythropoietic and Neuroprotective Agonist of the Erythropoietin Receptor with Anti-Inflammatory and Memory Enhancing Effects” (Mediators of Inflammation, 2016).
Positions of bridges follow the written chain, without caps; N, C: chain ends. Chains are numbered I, II in the order given. No end group written: not given here.

Tests used:
[1] = test system: TNF secretion from AMJ2-C8 macrophages; assay: Macrophage activation assay (TNF secretion estimated from L-cell viability); format: cell-based, mouse; conditions: untreated ~48%, MTS, 4 experiments
Protocol: The macrophage activation assay is used to estimate tumor necrosis factor (TNF) secretion from the macrophage cell line AMJ2-C8 (ATCC; Boras, Sweden). Fibroblastoid mouse L929 cells (L-cells; ECCC, Salisbury, UK) are sensitive to TNF upon exposure to actinomycin D, and L-cell survival can therefore be utilized as an indirect estimate of TNF concentrations. The assay was performed essentially as described previously. Briefly, AMJ2-C8 cells were plated in 6-well MultiDish plates (Nunc, Denmark) and treated with 100 μM hydrocortisone (Sigma-Aldrich, Brøndby, Denmark), […] (8.4 nM) rhEPO (Calbiochem, Merck Millipore, Denmark), or Epobis (0.9–8.1 μM) for 24 h. They were then exposed to 10 ng/mL interferon-γ (IFN-γ) (R&D Systems, UK) for 24 h to induce the production of TNF [34].
L-cells were seeded in 96-well Multiwell plates (2 × 10^5 cells/mL, 100 μL/well; Nunc) and grown for 24 h. Then conditioned medium from stimulated macrophages was collected and added to the L-cells together with actinomycin D (Sigma, Sigma-Aldrich). L-cell viability was assayed 24 h later by the MTS assay (Promega, Madison, WI, USA) according to the manufacture's protocol. Cell viability was calculated as follows: (1) cell viability %=ODexperiment/ODcontrol×100. […]

[2] = test system: hematocrit and hemoglobin levels in mice; assay: Hematopoiesis assay; format: in vivo; conditions: 10 mg/kg s.c. twice per week for 5 weeks, female C57BL/6J mice
Protocol: Estimates of hematopoietic activity of Epobis in female C57BL/6J mice were performed essentially as described previously. Briefly, Epobis (10 mg/kg), EPO (10 mg/kg; Calbiochem), or vehicle (PBS) was injected subcutaneously twice per week for 5 weeks. Blood samples were collected from the orbital plexus once per week, and hemoglobin levels and hematocrit values were determined as described.

[3] = test system: short-term/working memory of adult rats; assay: Social recognition test; format: in vivo, rat; conditions: 10 mg/kg single s.c., healthy adult rats
Protocol: The social recognition assay evaluates short-term/working memory of adult rats, a type of memory known to be impaired in old (>18 month) rats and in rats experiencing early stage AD [38]. Social recognition in rats was evaluated essentially as described previously. First, a habituation session was carried out; 24 h later, Epobis (10 mg/kg, 1 mL/kg, s.c.) or PBS (1.0 mL/kg, s.c.) was administered, and 1 h later the test animals were introduced to a new, juvenile male rat for 4 min (initial trial). After another 2.5 h the same juvenile rat was reintroduced, or as a control, an unfamiliar juvenile rat was introduced (test trial). To test long-term effects of the peptide, another social recognition test was performed with the initial trial taking place 73 h after administration of test compounds. Data are expressed as a recognition ratio: RR = T2/(T2 + T1), where T1 and T2 are the times spent on investigating the juvenile animal during the initial and the test trial, respectively.

[4] = biological target: EPO receptor; conditions: surface plasmon resonance; read-out: apparent KD; cited from earlier work
From the text: We have previously designed two synthetic, dendrimeric peptides with sequences corresponding to the first and the second EPO receptor binding site of human EPO, respectively. The peptide derived from binding site 2 was named Epotris and has previously been reported to promote neuritogenesis and neuronal survival in vitro and in vivo in a nonerythropoietic manner and to attenuate status epilepticus. The peptide derived from binding site 1 (residues 36–53 in the structural model of the EPO:EPO receptor-complex; PDB: 1EER [27]) was named Epobis, and surface plasmon resonance analy ...

[5] = test system: EAE in Lewis rats; assay: Experimental autoimmune encephalomyelitis (EAE); format: in vivo
Protocol: Experimental autoimmune encephalomyelitis (EAE) was induced as described previously. Briefly, female Lewis rats (200 g) received subcutaneous injections at both sides of the base of the tail with 0.2 mL of an emulsion containing 1 g/L Guinea pig myelin basic protein and 1 g/L M. tuberculosis in Freund's complete adjuvant (all from Sigma-Aldrich). The injections were performed under full inhalation anesthesia. EAE was induced in 30 animals; 6 healthy, age-matched, unimmunized rats were used as controls. Between day 0 and day 21, the weight and clinical signs of EAE were recorded daily for all animals. Clinical signs were scored as follows: 0, no abnormality; 0.5, weak tail; 1, limp tail; 2, mild palsy of one or both hind legs; 3, severe palsy of one or both hind legs; 4, complete paralysis of one or both hind legs; 5, paralysis of one or both hind legs and beginning paralysis of front legs; 6, moribund. Animals with a clinical score ≥4 were sacrificed immediately.
Starting at day 10 after induction of EAE, animals were treated once/day for 5 consecutive days with Epobis (10 mg/kg, 1 mL/kg, s.c.) or PBS (1.0 mL/kg, s.c.). The control group is identical to the control group of previously published data performed simultaneously with the Epobis study.

[6] = test system: TNF secretion from rat primary microglia; assay: LPS-induced TNF release from rat primary microglia (ELISA); format: cell-based; conditions: 0.9 μM, 1 h pretreatment, LPS 100 ng/mL 24 h, p < 0.05, 3 experiments
Protocol: Mixed glial cultures were prepared from 1-day-old to 2-day-old Wistar rat pups as described previously. Briefly, cortices were dissected, roughly chopped, and incubated in prewarmed 0.5% trypsin for 10 min. Then Dulbecco's modified Eagle's medium (DMEM) plus GlutaMAX (culture media; Gibco) containing 10% fetal calf serum, penicillin (100 U/mL), and streptomycin (100 U/mL) was added and tissue was triturated. The suspension was centrifuged at 500 ×g for 10 min, and the resulting pellet was resuspended in culture media and plated in a poly-L-lysine-coated T180 flask. The mixed glial culture was grown for 2-3 weeks at 37°C in a humidified 5% CO2 : 95% air environment. The medium was changed first at day 2 after culture preparation and then every 5-6 days. […] Images were recorded using a Zeiss Axiovert 100 microscope mounted with an AxioCam MRm camera using the accompanying ZEN 2012 software.
To induce TNF secretion, microglia cells were treated with lipopolysaccharide (LPS; 100 ng/mL; Sigma) following 1 h pretreatment in the absence or presence of Epobis. Conditioned media were collected 24 h later and released TNF was determined using a rat TNF Ready-SET-Go!® ELISA kit according to the manufacturer's instructions (eBioscience, San Diego, USA).

[7] = test system: primary rat motoneurons; assay: Neurite outgrowth from primary motoneurons; format: cell-based; conditions: 24 h, bell-shaped concentration dependence, p < 0.0001, 3 independent experiments
Protocol: Primary rat motoneurons were isolated as described previously. Briefly, the ventral horns of the lumbar spinal cord were dissected from Wistar rat embryos (E15). The dissociated motoneurons were plated at a density of 7,000 cells per well on laminin-coated (5 μg/mL; Sigma-Aldrich) 8-well LabTek Permanox slides (NUNC, Denmark). Neurons were stimulated with serially diluted Epobis peptide for 24 h, fixed with 4% formalin, stained with polyclonal rabbit anti-rat growth-associated protein-43 antibodies (1 : 1000; Millipore), and analyzed by computer-assisted fluorescence microscopy as described.

[8] = Detection of Epobis in plasma and cerebrospinal fluid; format: in vivo, Wistar rats; conditions: rat
Protocol: Detection of biotinylated Epobis in plasma was performed essentially as described previously. Briefly, 10 mg/kg Epobis was injected subcutaneously (s.c.) in anaesthetized 200 g Wistar rats, and blood samples were collected from the orbital plexus at selected time points. Cerebrospinal fluid (CSF) was sampled from the cisterna magna as described previously.
Subsequently the concentrations of peptide in serum plasma and CSF were estimated using a competitive enzyme-linked immunosorbent assay, where all samples were run in duplicate.

[9] = 10 mg/kg s.c. once/day for 5 days from day 10, Lewis rats
[10] = biotinylated Epobis, 10 mg/kg single s.c., competitive ELISA, n = 6

| Substance | L-cell viability relative to control ([1]; conditioned medium from IFN-γ-activated AMJ2-C8 macrophages pretreated 24 h with 8.4 nM EPO) | effect on hematocrit [2] | effect on hemoglobin levels [2] | recognition ratio (RR) versus vehicle, test 73 h after administration ([3]; n = 12, t-test p < 0.018, different from 0.5 p < 0.0001) | recognition ratio (RR) versus vehicle, test 1 h after administration ([3]; n = 12, t-test p > 0.05) | Kd [4] [nM] | L-cell viability relative to control (highest) ([1]; conditioned medium from IFN-γ-activated AMJ2-C8 macrophages pretreated 24 h with 2.7 μM Epobis, p < 0.05) | effect on survival of EAE animals versus vehicle [5, 9] | effect on weight changes of EAE animals versus vehicle [5, 9] | activated microglia in the brain stem of EAE animals, Epobis versus vehicle ([5]; 10 mg/kg s.c. once/day for 5 days from day 10, immunohistochemistry) | clinical signs of EAE versus vehicle, later time points ([5]; 10 mg/kg s.c. once/day for 5 days from day 10, n = 10) | clinical signs of EAE versus vehicle, day 2 after onset ([5]; 10 mg/kg s.c. once/day for 5 days from day 10, n = 10, p < 0.05) | LPS-induced TNF secretion from microglia [6] | concentration of maximal stimulation of neurite outgrowth [7] [µM] | plasma : CSF ratio ([8]; 2 h after single s.c. 10 mg/kg) | time of peak plasma concentration [8, 10] | time the peptide remained detectable in blood [8, 10] |
| --- | --- | --- | --- | --- | --- | --- | --- | --- | --- | --- | --- | --- | --- | --- | --- | --- | --- |
| erythropoietin [EPO] | ~ 64% | statistically significant increases | statistically significant increases |  |  |  |  |  |  |  |  |  |  |  |  |  |  |
| I: NENITVPDTKVNFYAWKRKK-NH2 / II: NENITVPDTKVNFYAWKRK / III: NENITVPDTKVNFYAWKR / IV: NENITVPDTKVNFYAWKR (amide I:19-IV:C, I:20-II:C, II:19-III:C; C-terminus assumed) [Epobis] |  | did not cause any statistically significant increases | did not cause any statistically significant increases | significantly lower | no significant difference | ~60 | ~ 68% | no significant effects | no significant effects | no difference | not significantly different | significantly lower | significant decrease | 0.33 | approximately 20 | around 2 h | at least 24 h |
